In US12636368B2, “Ionizable lipids for nucleic acid delivery” (Global Life Sciences Solutions Canada ULC, priority 2019, dated 2026):
Like-named read-outs stand apart in the source and are kept apart here.

Columns and labels:
[1] = tested on: C57BL/6 mice; assay: OVA mRNA LNP intramuscular immunization, anti OVA-IgG ELISA; format: in vivo; conditions: i.m., days 1 and 10
Source text: LNP with the composition LM02b were used to encapsulate OVA antigen encoded CleanCap® OVA WT mRNA [TriLink L7610] or CleanCap® OVA 5-moU mRNA [TriLink L7210]. A lipid mixture of Ionizable lipid, DOPE, Cholesterol, and PEG-DMG2000, all in ethanol, was mixed with a low PH buffered solution of OVA mRNA at an N/P ratio of 8 using a NanoAssemblr® Ignite™ microfluidic mixer. The LNP were filtered using the Amicon™ ultra filtration technique and characterized for Size, PDI and Encapsulation Efficiency. Size and PDI were measured using dynamic light scattering techniques, and nucleic acid encapsulation efficiency was calculated from the Quant-iT RiboGreen RNA assay. […]
All animals were handled according to the Institutional Animal Care and Use Committee ethics protocols. […] Aliquots of serum samples were thawed and analyzed at appropriate dilutions for OVA expression and for IgG measurements using standard ELISA techniques.
Anti OVA-IgG ELISA of serum samples: Sera from the immunized mice were collected at 2 weeks post second immunization. OVA-specific production of IgG in response to OVA-encoded mRNA in various LNPs were measured by ELISA as described supra. […] After 30 minutes of incubation, a stop solution of 2 N sulphuric acid was added and a plate reader was used to determine absorbance at 450 nm. […]

[2] = LNP size and PDI by dynamic light scattering; format: physicochemical
Procedure: After the lipid particles were made as described supra, particle size (hydrodynamic diameter of the particles) was determined by Dynamic Light Scattering (DLS) using a ZetaSizer™ Nano ZS™ (Malvern Instruments, UK). He/Ne laser tuned to 633 nm wavelength was used as the light source. Data were measured from the scattered intensity data conducted in backscattering detection mode (measurement angle=173). Measurements were an average of 10 runs of two cycles each per sample. Z-Average size was reported as the particle size, and is defined as the harmonic intensity averaged particle diameter.
(§1) Physical characteristics of lipid nanoparticle (LNP) compositions comprising compounds according to Formula (I) and that were manufactured on the NanoAssemblr® Spark and Benchtop, are shown in Tables 6 and 7 below. Size, size variation of the LNP (PDI), encapsulation efficiency, and pKa are shown. The physical characteristics of these LNP are important from a standpoint of stability, biodistribution, and cell membrane crossing. There was good encapsulation in all the formulations, with polydispersity (PDI) under 0.3. Size and PDI were measured using dynamic light scattering techniques, and nucleic acid encapsulation efficiency was calculated from a modified Quant-iT RiboGreen RNA assay.

[3] = Nucleic acid encapsulation efficiency by RiboGreen assay; format: physicochemical
Procedure: Messenger RNA or plasmid NAT was diluted using sodium acetate buffer to the required concentration. Lipid nucleic acid particle samples were then prepared by running both fluids using the NanoAssemblr® Spark instrument. […] The lipid nucleic acid particles made in the instrument were immediately diluted down with 48 μL Ca and Mg free 1×PBS at pH 7.4 in the aqueous output well. These nucleic acid lipid particles were immediately collected into microcentrifuge tubes containing 96 μL of Ca and Mg free 1×PBS at pH 7.4. Encapsulation efficiency was measured by a modified Ribogreen™ assay (Quanti-iT RiboGreen™ RNA assay kit, Fisher). Observed particle attributes were generally sized from 60-200 nm for mRNA, depending on lipid composition and method of production.
as §1

[4] = TNS assay, surface pKa of lipid nanoparticles; format: physicochemical
Procedure: In embodiments of the invention, the experimental pKa of formulated lipid nanoparticles comprising lipids in Table 1 is calculated using the 2-(p-toluidinyl)naphthalene-6-sulfonic acid (TNS) assay. The procedure for the TNS assay is described in Example 25.
The pKa of each cationic lipid was determined in lipid nanoparticles using an assay based on fluorescence of 6-(p-Toluidino)-2-naphthalenesulfonic acid sodium salt (TNS, Sigma Aldrich), which is a fluorescent probe for the conformational state of proteins5. Empty lipid nanoparticles comprising ionizable lipid in LM02 composition in distilled water at a concentration of 3.125 mM total lipid are formulated using NanoAssemblr® Spark™, and were then was characterized for LNP quality on the Zetasizer™ using a 30× dilution with 1×PBS in the low volume cuvette. Lipid nanoparticles were further diluted 4× using distilled water to 0.781 mM total lipid. TNS was prepared as a 25 μM stock solution in distilled water. Then 6.4 μL of diluted LNP samples of 0.781 mM total lipid were mixed with 10 μL of diluted TNS to a final volume of 250 μL with buffer containing 10 mM HEPES, 10 mM MES, 10 mM NH4OAc and 130 mM NaCl where the pH ranged from 3 to 9 in 0.5 pH increments.
Samples were mixed thoroughly, and the fluorescence intensity was measured at room temperature in a BioTek™ Synergy™ H1 Hybrid Multi-Mode Monochromator™ Fluorescence Microplate Reader using excitation and emission wavelengths of 321 nm and 445 nm respectively. A sigmoidal best fit analysis was applied to the fluorescence data using GraphPad Prism™ software, and the pKa was measured as the pH at half-maximal fluorescence intensity.

[5] = Table 6, GFP-encoded LNPs, CT10, N/P 8
[6] = Table 7, EPO mRNA LNPs, LM02, N/P 6

Diameter (Z. ave, nm) [2, 5]: 121.5 nm
Polydispersity Index (PDI) [2, 5]: 0.39
Diameter (Z. ave, nm) [2, 6]: 65.3 nm
Polydispersity Index (PDI) [2, 6]: 0.09
Encapsulation Efficiency (%) [3, 5]: 51.1%
Encapsulation Efficiency (%) [3, 6]: 95.9%
pKa ([4]; Table 1, formulated lipid nanoparticles, TNS assay, read-out: Exp. pKa): 6.45
pKa ([4]; Table 8, read-out: Exp.pKa): 6.45
Structure (SMILES): CCCCC/C=C\C/C=C\CCCCCCCC(=O)O[C@@H]1[C@@H](OC(=O)CCCCCCC/C=C\C/C=C\CCCCC)CO[C@@H]1COC(=O)C1CCN(C)CC1 (racemic) [PNI 325]
immune response to OVA antigen loaded LNPs [1]: effectively elicit an immune response similar to OVA antigen
